Laboratory results reported in ChEMBL document CHEMBL1201862, “PubChem BioAssay data set” (2004).
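Step 1: Grow cells in 96-well plates. Step 2: Expose to compound for 48 hours at 5 concentrations. Step 3: Interpolate endpoints linearly; if unreached, use highest concentration. GI50: concentration for 50% inhibition of growth.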 Active and inactive are the calls of the source. No stated cut-off is given here; in the data, active = GI50 up to about 1.1 µM and inactive = higher.

What was measured:
Assay in all cases: NCI anticancer screen, dose series, 48 h
[1] = system: UACC-62
[2] = system: SNB-19
[3] = system: SK-MEL-2
[4] = system: TK-10
[5] = system: NCI-H226
[6] = system: OVCAR-3
[7] = system: IGROV-1
[8] = system: HCT-15
[9] = system: OVCAR-8
[10] = system: A498
[11] = system: LOX IMVI
[12] = system: KM12
[13] = system: MDA-N
[14] = system: HOP-92
[15] = system: CCRF-CEM
[16] = system: NCI-H23
[17] = system: SF-268
[18] = system: EKVX
[19] = system: DLD-1
[20] = system: HOP-18

SMILES | GI50 [1] | GI50 [2] | GI50 [3] | GI50 [4] | GI50 [5] | GI50 [6] | GI50 [7] | GI50 [8] | GI50 [9] | GI50 [10] | GI50 [11] | GI50 [12] | GI50 [13] | GI50 [14] | GI50 [15] | GI50 [16] | GI50 [17] | GI50 [18] | GI50 [19] | GI50 [20]
OC(c1ccc(Cl)cc1)(c1ccc(Cl)cc1)c1cncnc1 | 14.8 µM (inactive) | 22.5 µM (inactive) | 16.6 µM (inactive) | 21.8 µM (inactive) | 20.7 µM (inactive) | 17.1 µM (inactive) | > 10 µM (inactive) | 19 µM | 21.4 µM (inactive) | 21.2 µM (inactive) | 23.2 µM (inactive) | 17.6 µM (inactive) | 19.2 µM (inactive) | 17.4 µM (inactive) | 15.3 µM (inactive) | 26.3 µM (inactive) |  |  |  | 
O=S(=O)(O)c1ccc(-c2c3nc(c(-c4ccc(S(=O)(=O)O)cc4)c4ccc([nH]4)c(-c4ccc(S(=O)(=O)O)cc4)c4nc(c(-c5ccc(S(=O)(=O)O)cc5)c5ccc2[nH]5)C=C4)C=C3)cc1 | > 100 µM (inactive) | 65.9 µM (inactive) | > 100 µM (inactive) | 21.6 µM (inactive) | 32.7 µM (inactive) | 36.3 µM (inactive) | 53.3 µM (inactive) | 26.4 µM | > 100 µM (inactive) | > 100 µM (inactive) | 37.8 µM (inactive) | 51.5 µM (inactive) |  | 91.2 µM (inactive) | 23 µM (inactive) | 64.4 µM (inactive) | > 100 µM (inactive) |  |  | 
NC(CCOCCP(=O)(O)O)C(=O)O (stereo not given) | 56.5 µM (inactive) | > 100 µM (inactive) | > 100 µM (inactive) | > 100 µM (inactive) |  | > 100 µM (inactive) | > 100 µM (inactive) | > 100 µM | > 100 µM (inactive) |  | > 100 µM (inactive) | > 100 µM (inactive) | > 100 µM (inactive) | > 100 µM (inactive) | > 100 µM (inactive) | > 100 µM (inactive) | > 100 µM (inactive) | > 100 µM (inactive) |  | 
CC(SC1=CC(=O)c2c(Cl)ccc(O)c2C1=O)C(=O)O (stereo not given) |  |  | 17.5 µM (inactive) | 20.7 µM (inactive) | 43.3 µM (inactive) |  | 17.3 µM (inactive) | 17.1 µM | 18.2 µM (inactive) | 67.1 µM (inactive) | 10.1 µM (inactive) | 18 µM (inactive) |  | 21.6 µM (inactive) | 5.25 µM (inactive) | > 10 µM (inactive) | 20.2 µM (inactive) | 21.3 µM (inactive) | 17.3 µM (inactive) | 27.5 µM (inactive)
O=c1[nH]nc(NCc2ccccc2)c2nnn(Cc3ccccc3)c12 |  | > 100 µM (inactive) | > 100 µM (inactive) | > 100 µM (inactive) |  | > 100 µM (inactive) |  | > 100 µM | > 100 µM (inactive) |  | > 100 µM (inactive) | > 100 µM (inactive) | > 100 µM (inactive) | > 100 µM (inactive) | > 100 µM (inactive) | > 100 µM (inactive) |  | > 100 µM (inactive) |  | 
CCOC(=O)/C(=C\NC#N)c1nc2ccccc2[nH]1 | 85.1 µM (inactive) | > 100 µM (inactive) |  | 85.5 µM (inactive) |  | > 100 µM (inactive) | 58.9 µM (inactive) | 91 µM | > 100 µM (inactive) | > 100 µM (inactive) | > 100 µM (inactive) | > 100 µM (inactive) | > 100 µM (inactive) | > 100 µM (inactive) |  | > 100 µM (inactive) | 72.9 µM (inactive) | > 100 µM (inactive) |  | 
CC1C(O)[C@@]2(OC[C@@]34C(=O)CC5(O)[C@H](CCC6Cc7nc8c(nc7C[C@]65C)CC5CC[C@@H]6C7=C[C@H]9O[C@@]%10(O[C@@](C)(CO)C[C@@H]%10O)C(C)[C@@]9(O)[C@]7(C)[C@@H](O)CC6[C@]5(C)C8)C3=CC[C@H]4C2C)OC1(C)C (stereo not given in full) | < 0.000355 µM (active) | 0.00259 µM (active) | 0.000524 µM (active) |  | > 3.55 µM (inactive) | 1.26 µM (inactive) | 0.00262 µM (active) | 0.00667 µM | 0.247 µM (active) | < 0.000355 µM (active) | < 0.000355 µM (active) | > 3.55 µM (inactive) |  | < 0.000355 µM (active) | < 0.000355 µM (active) | 0.00127 µM (active) | 0.000659 µM (active) | 0.00084 µM (active) | 0.0607 µM (active) | 0.849 µM (active)
